For 19 molecules, IC50 results are on record in patent publication US9266869B2, “Substituted dialkyl(oxido)-lambda4-sulfanylidene nicotinamide derivatives as kinase inhibitors” (Allergan, Inc., priority 2013, dated 2016).

By IC50 is commonly meant the midpoint of a concentration-inhibition curve.

Test [1] concerns the target VEGFR2 (KDR) (Homo sapiens (Human), UniProt P35968). The test can be described thus: VEGFR2 Kinase Assay. It is filed as biochemical. As to conditions: purified cytoplasmic domain KDR protein, 2.7 μM ATP; read-out: VEGFR2 Enzyme Assay (IC50 nM). Here is the method: VEGFR2 Kinase Assay Biochemical KDR kinase assays were performed in 96 well microtiter plates that were coated overnight with 75 μg/well of poly-Glu-[…]:1) in 10 mM Phosphate Buffered Saline (PBS), pH 7.4. […] Reactions were carried out in 100 μL reaction volumes containing 2.7 μM ATP in kinase buffer (50 mM Hepes buffer pH 7.4, 20 mM MgCl2, 0.1 mM MnCl2 and 0.2 mM Na3VO4). […] Reactions were initiated by the addition 20 ul per well of kinase buffer containing 200-300 ng purified cytoplasmic domain KDR protein (BPS Bioscience, San Diego, Calif.). Following a 15 minute incubation at 30° C., the reactions were washed 2 mls per well PBS-T. 100 μl of a monoclonal anti-phosphotyrosine antibody-peroxidase conjugate diluted 1:10,000 in PBS-T was added to the wells for 30 minutes. Following a 2 mls per well wash with PBS-Tween-20, 100 μl of 0-Phenylenediamine Dihydrochloride in phosphate-citrate buffer, containing urea hydrogen peroxide, was added to the wells for 7-10 minutes as a colorimetric substrate for the peroxidase. […] IC50 values for compound inhibition were calculated directly from graphs of optical density (arbitrary units) versus compound concentration following subtraction of blank values.

The target of test [2] is VEGFR2 (Homo sapiens (Human), UniProt P35968). Briefly: VEGFR2 Cellular Assay (VEGF induced intracellular calcium, FLIPR, HUVEC). The format is cell-based. As to conditions: VEGF165 stimulation (10 ng/mL). As to the method: (§1) VEGFR2 Cellular Assay Automated FLIPR (Fluorometric Imaging Plate Reader) technology was used to screen for inhibitors of VEGF induced increases in intracellular calcium levels in fluorescent dye loaded endothelial cells. HUVEC (human umbilical vein endothelial cells) (Clonetics) were seeded in 384-well fibronectin coated black-walled plates overnight @ 37° C./5% CO2. Cells were loaded with calcium indicator Fluo-4 for 45 minutes at 37° C. Cells were washed 2 times (Elx405, Biotek Instruments) to remove extracellular dye. For screening, cells were pre-incubated with test agents for 30 minutes, at a single concentration (10 uM) or at concentrations ranging from 0.0001 to 10.0 uM followed by VEGF165 stimulation (10 ng/mL). Changes in fluorescence at 516 nm were measured simultaneously in all 384 wells using a cooled CCD camera. Data were generated by determining max-min fluorescence levels for unstimulated, stimulated, and drug treated samples. IC50 values for test compounds were calculated from % inhibition of VEGF stimulated responses in the absence of inhibitor.
VEGFR2, sequence (P35968 20-1356): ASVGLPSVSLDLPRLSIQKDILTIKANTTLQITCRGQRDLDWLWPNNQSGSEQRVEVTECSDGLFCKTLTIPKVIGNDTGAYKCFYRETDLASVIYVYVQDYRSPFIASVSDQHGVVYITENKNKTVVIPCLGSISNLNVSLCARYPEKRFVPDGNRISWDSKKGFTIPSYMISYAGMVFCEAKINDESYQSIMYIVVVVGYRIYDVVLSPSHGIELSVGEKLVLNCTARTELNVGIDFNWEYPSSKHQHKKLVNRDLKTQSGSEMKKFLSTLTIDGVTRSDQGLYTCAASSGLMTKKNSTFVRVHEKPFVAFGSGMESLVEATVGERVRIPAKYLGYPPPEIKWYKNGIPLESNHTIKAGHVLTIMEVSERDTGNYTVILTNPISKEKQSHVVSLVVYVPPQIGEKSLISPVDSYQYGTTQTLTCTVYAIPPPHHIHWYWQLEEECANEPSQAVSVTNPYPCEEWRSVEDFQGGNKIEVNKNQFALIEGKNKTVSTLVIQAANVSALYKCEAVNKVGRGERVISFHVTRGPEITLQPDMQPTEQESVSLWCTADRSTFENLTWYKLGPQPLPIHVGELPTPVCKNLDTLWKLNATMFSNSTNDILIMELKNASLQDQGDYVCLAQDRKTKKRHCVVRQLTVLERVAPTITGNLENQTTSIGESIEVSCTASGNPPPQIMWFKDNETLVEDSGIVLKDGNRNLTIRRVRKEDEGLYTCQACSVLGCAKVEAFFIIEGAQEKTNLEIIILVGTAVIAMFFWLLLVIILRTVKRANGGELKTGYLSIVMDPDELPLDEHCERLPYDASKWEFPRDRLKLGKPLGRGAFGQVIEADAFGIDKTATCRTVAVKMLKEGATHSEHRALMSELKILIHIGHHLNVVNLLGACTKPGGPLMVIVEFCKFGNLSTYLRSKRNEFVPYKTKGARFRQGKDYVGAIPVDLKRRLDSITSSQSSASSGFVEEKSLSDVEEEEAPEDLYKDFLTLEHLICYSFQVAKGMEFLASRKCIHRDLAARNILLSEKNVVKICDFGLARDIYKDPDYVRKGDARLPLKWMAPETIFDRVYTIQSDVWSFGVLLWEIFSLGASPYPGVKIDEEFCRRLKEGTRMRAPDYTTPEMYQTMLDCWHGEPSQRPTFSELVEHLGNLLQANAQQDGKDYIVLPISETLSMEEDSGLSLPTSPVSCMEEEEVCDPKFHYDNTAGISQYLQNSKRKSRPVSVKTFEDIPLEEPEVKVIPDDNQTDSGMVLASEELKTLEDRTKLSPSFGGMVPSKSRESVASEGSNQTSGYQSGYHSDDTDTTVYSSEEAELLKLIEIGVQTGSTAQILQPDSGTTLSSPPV
(In general: Calcium assays in cells follow changes in intracellular calcium, usually with a dye or a luminescent sensor.)

For test [3], the target named is T1, PDGFRβ (Homo sapiens (Human), UniProt P09619). Briefly: PDGFRβ Kinase Assay. The format is biochemical. The conditions noted are these: purified cytoplasmic domain PDGFR-b protein, 36 μM ATP; read-out: PDGFRβ Enzyme Assay (IC50 nM). As to the method:
Biochemical PDGFRβ kinase assays were performed in 96 well microtiter plates that were coated overnight with 75 μg of poly-Glu-Tyr (4:1) in 10 mM Phosphate Buffered Saline (PBS), pH 7.4.
PBS-T prior to starting the reaction. Reactions were carried out in 100 μL reaction volumes containing 36 μM ATP in kinase buffer (50 mM Hepes buffer pH 7.4, 20 mM MgCl2, 0.1 mM MnCl2 and 0.2 mM Na3VO4). […] Reactions were initiated by the addition 20 ul per well of kinase buffer containing 200-300 ng purified cytoplasmic domain PDGFR-b protein (Millipore). Following a 60 minute incubation at 30° C., the reactions were washed 2 mls per well PBS-T. 100 μl of a monoclonal anti-phosphotyrosine antibody-peroxidase conjugate diluted 1:10,000 in PBS-T was added to the wells for 30 minutes. Following a 2 mls per well wash with PBS-Tween-20, 100 μl of O-Phenylenediamine Dihydrochloride in phosphate-citrate buffer, containing urea hydrogen peroxide, was added to the wells for 7-10 minutes as a colorimetric substrate for the peroxidase. […] IC50 values for compound inhibition were calculated directly from graphs of optical density (arbitrary units) versus compound concentration following subtraction of blank values.
Target sequence in this assay (P09619 554-1106): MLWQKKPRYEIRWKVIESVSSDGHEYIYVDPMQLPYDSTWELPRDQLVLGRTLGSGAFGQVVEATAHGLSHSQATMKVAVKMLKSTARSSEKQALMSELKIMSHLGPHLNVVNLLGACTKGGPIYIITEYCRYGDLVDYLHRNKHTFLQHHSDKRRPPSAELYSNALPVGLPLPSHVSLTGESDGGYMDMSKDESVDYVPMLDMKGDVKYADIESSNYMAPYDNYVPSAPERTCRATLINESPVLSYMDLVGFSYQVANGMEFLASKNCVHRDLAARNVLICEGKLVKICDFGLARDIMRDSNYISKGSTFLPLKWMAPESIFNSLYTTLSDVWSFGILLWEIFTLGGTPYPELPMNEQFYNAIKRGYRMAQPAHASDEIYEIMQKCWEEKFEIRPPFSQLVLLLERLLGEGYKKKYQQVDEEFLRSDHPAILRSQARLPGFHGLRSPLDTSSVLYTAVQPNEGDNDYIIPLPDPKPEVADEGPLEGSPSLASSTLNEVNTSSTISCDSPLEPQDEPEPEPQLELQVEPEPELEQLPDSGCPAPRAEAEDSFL

Test [4] has as its target T1, PDGFRβ. The test can be described thus: PDGFRβ Cellular Assay (PDGF-induced intracellular calcium, FLIPR, NHDF-Ad). The conditions noted are these: PDGF-BB stimulation (30 ng/mL). The format is cell-based. As to the method:
as §1, with “Automated” for “VEGFR2 Cellular Assay Automated”, “of PDGF-induced” for “of VEGF induced”, “[…]. NHDF-Ad (Normal Human Dermal Fibroblasts, Adult; Lonza)” for “cells. HUVEC (human umbilical vein endothelial cells) (Clonetics)”, “by PDGF-BB” for “by VEGF165”, “stimulation (30” for “stimulation (10”, “of PDGF-BB” for “of VEGF”
Target sequence in this assay (P09619 33-1106): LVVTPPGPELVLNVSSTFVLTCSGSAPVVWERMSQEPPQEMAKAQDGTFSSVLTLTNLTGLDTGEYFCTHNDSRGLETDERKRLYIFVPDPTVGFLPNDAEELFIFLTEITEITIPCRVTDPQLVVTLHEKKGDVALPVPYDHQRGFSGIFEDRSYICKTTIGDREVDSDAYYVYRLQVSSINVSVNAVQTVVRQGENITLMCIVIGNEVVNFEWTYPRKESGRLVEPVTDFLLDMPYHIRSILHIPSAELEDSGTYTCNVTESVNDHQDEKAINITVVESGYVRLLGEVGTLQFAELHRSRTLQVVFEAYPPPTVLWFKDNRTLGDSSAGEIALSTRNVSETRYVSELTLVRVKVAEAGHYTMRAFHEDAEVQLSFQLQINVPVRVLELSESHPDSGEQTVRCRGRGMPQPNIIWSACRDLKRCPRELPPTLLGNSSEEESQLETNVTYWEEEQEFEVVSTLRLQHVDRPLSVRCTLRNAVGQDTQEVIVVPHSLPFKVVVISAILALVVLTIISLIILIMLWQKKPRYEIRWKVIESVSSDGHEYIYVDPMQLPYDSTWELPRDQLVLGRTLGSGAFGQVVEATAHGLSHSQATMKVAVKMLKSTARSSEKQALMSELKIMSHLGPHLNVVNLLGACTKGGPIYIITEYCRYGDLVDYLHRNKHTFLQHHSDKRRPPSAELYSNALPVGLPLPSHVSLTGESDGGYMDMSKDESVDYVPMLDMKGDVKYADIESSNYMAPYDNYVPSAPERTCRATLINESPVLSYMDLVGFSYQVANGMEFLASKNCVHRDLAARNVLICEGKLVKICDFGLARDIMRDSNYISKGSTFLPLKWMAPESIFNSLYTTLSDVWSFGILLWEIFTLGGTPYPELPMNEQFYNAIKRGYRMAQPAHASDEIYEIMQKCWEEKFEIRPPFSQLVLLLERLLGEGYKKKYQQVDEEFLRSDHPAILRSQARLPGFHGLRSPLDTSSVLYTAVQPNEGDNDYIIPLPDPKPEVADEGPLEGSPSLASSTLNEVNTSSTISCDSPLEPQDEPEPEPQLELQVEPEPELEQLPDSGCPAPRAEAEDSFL

VEGFR2 (KDR), sequence (P35968 786-1356): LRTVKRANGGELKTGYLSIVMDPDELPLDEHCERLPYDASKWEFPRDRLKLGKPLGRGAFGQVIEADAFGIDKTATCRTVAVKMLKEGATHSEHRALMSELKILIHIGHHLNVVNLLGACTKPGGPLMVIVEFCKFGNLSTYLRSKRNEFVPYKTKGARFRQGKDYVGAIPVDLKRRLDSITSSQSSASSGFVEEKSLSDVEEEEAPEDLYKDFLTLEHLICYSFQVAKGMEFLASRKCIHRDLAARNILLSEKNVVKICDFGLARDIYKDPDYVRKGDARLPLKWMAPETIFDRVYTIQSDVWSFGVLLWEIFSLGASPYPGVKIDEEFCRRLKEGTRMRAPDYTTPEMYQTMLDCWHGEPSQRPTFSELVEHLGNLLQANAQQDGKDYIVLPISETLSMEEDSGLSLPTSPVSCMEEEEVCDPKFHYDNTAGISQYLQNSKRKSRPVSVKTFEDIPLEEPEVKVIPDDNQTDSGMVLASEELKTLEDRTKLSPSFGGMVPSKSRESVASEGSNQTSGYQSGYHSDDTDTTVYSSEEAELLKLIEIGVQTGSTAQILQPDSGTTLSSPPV

`CS(C)(=O)=NC(=O)c1cncc(C#Cc2cccc(NC(=O)Nc3ccccc3F)c2)c1` [Example 9, N-[Dimethyl(oxido)-λ^4-sulfanylidene]-5-{[3-({[(2-fluorophenyl)amino]carbonyl}amino)phenyl]ethynyl}nicotinamide]: the IC50 in test [1] stood at 8 nM; in test [2] it was 48 nM.

In the case of `Cc1ccoc1C(=O)Nc1cccc(C#Cc2cncc(C(=O)N=S(=O)(CCCO)CCCO)c2)c1` [Example 14, N-[Bis(3-hydroxypropyl)(oxido)-λ^4-sulfanylidene]-5-({3-[(3-methyl-2-furoyl)amino]phenyl}ethynyl)nicotinamide], the IC50 is 26 nM in test [3] and 5 nM in test [1].

As for `CS(C)(=O)=NC(=O)c1cnc(N)c(C#Cc2cccc(NC(=O)c3ccc(Cl)cc3)c2)c1` [Example 5, 6-Amino-5-({3-[(4-chlorobenzoyl)amino]phenyl}ethynyl)-N-[dimethyl(oxido)-λ^4-sulfanylidene]nicotinamide], the values for the IC50 in test [3], in test [1] and in test [2] were 22 nM, 2 nM and 9 nM, respectively.

Consider `Cc1cccc(NC(=O)Nc2cccc(C#Cc3cncc(C(=O)N=S(C)(C)=O)c3)c2)c1` [Example 10, N-[Dimethyl(oxido)-λ^4-sulfanylidene]-5-{[3-({[(3-methylphenyl)amino]carbonyl}amino)phenyl]ethynyl}nicotinamide], for which the IC50 in test [3] was 19 nM; in test [1] it was 8 nM; in test [2], 11 nM.

Take `Cc1ccoc1C(=O)Nc1cccc(C#Cc2cc(C(=O)N=S(C)(=O)CCCCC(=O)O)cnc2N)c1` (stereo not shown) [Example 24, 5-(N-{[6-amino-5-({3-[(3-methyl-2-furoyl)amino]phenyl}ethynyl)pyridin-3-yl]carbonyl}-S-methylsulfonimidoyl)pentanoic acid]: the IC50 amounted to 5 nM in test [1] and 46 nM in test [2].

`Cc1ccc(NC(=O)Nc2cccc(C#Cc3cncc(C(=O)N=S(C)(C)=O)c3)c2)cc1` [Example 11, N-[Dimethyl(oxido)-λ^4-sulfanylidene]-5-{[3-({[(4-methylphenyl)amino]carbonyl}amino)phenyl]ethynyl}nicotinamide]: the IC50 was 19 nM in test [3], 6 nM in test [1] and 15 nM in test [2].

Consider “(R)—N-[(3-Hydroxypropyl)(methyl)oxido-λ^4-sulfanylidene]-5-({3-[(3-methyl-2-furoyl)amino]phenyl}ethynyl)nicotinamide [Example 40]”, for which the IC50 in test [1] was 3 nM; in test [2] it was 2 nM.

In the case of “6-Amino-N-[(3-hydroxypropyl)(methyl)oxido-λ^4-sulfanylidene]-5-({3-[(3-methyl-2-furoyl)amino]phenyl}ethynyl)nicotinamide [Example 42]”, the IC50 is 13 nM in test [3] and 5 nM in test [1].

Consider `COc1cccc(C(=O)Nc2cccc(C#Cc3cc(C(=O)N=S(=O)(CCCO)CCCO)cnc3N)c2)c1` [Example 21, 6-Amino-N-[bis(3-hydroxypropyl)(oxido)-λ^4-sulfanylidene]-5-({3-[(3-methoxybenzoyl)amino]phenyl}ethynyl)nicotinamide], for which, in test [1], the IC50 was 5 nM.

For the molecule `Cc1ccoc1C(=O)Nc1cccc(C#Cc2cc(C(=O)N=S(=O)(CCCO)CCCO)cnc2N)c1` [Example 15, 6-amino-N-[bis(3-hydroxypropyl)(oxido)-λ^4-sulfanylidene]-5-({3-[(3-methyl-2-furoyl)amino]phenyl}ethynyl)nicotinamide], the results for the concentration for half-maximal inhibition (IC50) in test [3] and in test [1] were 16 nM and 3 nM, respectively.

As for `COC(=O)CCCCS(C)(=O)=NC(=O)c1cnc(N)c(C#Cc2cccc(NC(=O)c3cc(C)ccc3F)c2)c1` (stereo not shown) [Example 25, Methyl 5-(N-{[6-amino-5-({3-[(2-fluoro-5-methylbenzoyl)amino]phenyl}ethynyl)pyridin-3-yl]carbonyl}-S-methylsulfonimidoyl)pentanoate], the IC50 worked out at 27 nM in test [4], 45 nM in test [3] and 8 nM in test [1].

In the case of `Cc1cccc(C(=O)Nc2cccc(C#Cc3cncc(C(=O)N=S(=O)(CCCO)CCCO)c3)c2)c1` [Example 17, N-[Bis(3-hydroxypropyl)(oxido)-λ^4-sulfanylidene]-5-({3-[(3-methylbenzoyl)amino]phenyl}ethynyl)nicotinamide], the IC50 in test [3] was 6 nM; in test [1], 3 nM.

Take `O=C(N=S(=O)(CCCO)CCCO)c1cncc(C#Cc2cccc(NC(=O)c3ccc(Cl)c(C(F)(F)F)c3)c2)c1` [Example 16, N-[Bis(3-hydroxypropyl)(oxido)-λ^4-sulfanylidene]-5-[(3-{[4-chloro-3-(trifluoromethyl)benzoyl]amino}phenyl)ethynyl]nicotinamide]: the IC50 in test [1] was 3 nM.

Regarding `O=C(N=S(=O)(CCCO)CCCO)c1cncc(C#Cc2cccc(NC(=O)c3cccc(C(F)(F)F)c3)c2)c1` [Example 18, N-[Bis(3-hydroxypropyl)(oxido)-λ^4-sulfanylidene]-5-[(3-{[3-(trifluoromethyl)benzoyl]amino}phenyl)ethynyl]nicotinamide], the IC50 in test [1] came out at 4 nM.

As for `Cn1ccnc1C(=O)Nc1cccc(C#Cc2cc(C(=O)N=S(C)(C)=O)cnc2N)c1` [Example 7, 6-Amino-N-[dimethyl(oxido)-λ^4-sulfanylidene]-5-[(3-{[(1-methyl-1H-imidazol-2-yl)carbonyl]amino}phenyl)ethynyl]nicotinamide], the values for the IC50 in test [1] and in test [2] were 6 nM and 51 nM, respectively.

As to `O=C(N=S(=O)(CCCO)CCCO)c1cncc(C#Cc2cccc(NC(=O)c3ccc(F)c(Cl)c3)c2)c1` [Example 19, N-[Bis(3-hydroxypropyl)(oxido)-λ^4-sulfanylidene]-5-({3-[(3-chloro-4-fluorobenzoyl)amino]phenyl}ethynyl)nicotinamide], in test [1], the IC50 was determined as 5 nM.

In the case of `Cc1cccc(NC(=O)c2cccc(C#Cc3cc(C(=O)N=S(=O)(CCCO)CCCO)cnc3N)c2)c1` [Example 22, 6-Amino-N-[bis(3-hydroxypropyl)(oxido)-λ^4-sulfanylidene]-5-[(3-{[(3-methylphenyl)amino]carbonyl}phenyl)ethynyl]nicotinamide], the IC50 in test [3] turned out to be 8 nM; in test [1], 3 nM.

As to `COC(=O)CCCCS(C)(=O)=NC(=O)c1cnc(N)c(C#Cc2cccc(C(=O)Nc3cc(C)ccc3F)c2)c1` (stereo not shown) [Example 35, Methyl 5-[N-({6-amino-5-[(3-{[(2-fluoro-5-methylphenyl)amino]carbonyl}phenyl)ethynyl]pyridin-3-yl}carbonyl)-S-methylsulfonimidoyl]pentanoate], the IC50 in test [4] was 43 nM; in test [1] it was 17 nM.

For `Cc1ccc(F)c(C(=O)Nc2cccc(C#Cc3cncc(C(=O)N=S(=O)(CCCO)CCCO)c3)c2)c1` [Example 20, N-[Bis(3-hydroxypropyl)(oxido)-λ^4-sulfanylidene]-5-({3-[(2-fluoro-5-methylbenzoyl)amino]phenyl}ethynyl)nicotinamide], the IC50 in test [1] came to 9 nM.
